Literature values as cited in paper PMC2110886 (PLoS ONE, 2007).

Test system: Seasonal influenza strains
Parameters: method as in PMID 15709056
Details: in children; cited from earlier work

For `CCOC(=O)C1=C[C@@H](OC(CC)CC)[C@H](NC(C)=O)[C@@H](N)C1` [Oseltamivir, oseltamivir, reference compound], the “rate of resistance to oseltamivir” value is listed as 4%.
